Data taken from patent US5192791A, “Fused ring heterocycles and pharmaceutical compositions containing same” (Biofor, Ltd., priority 1990, dated 1993).

Key:
[1] = system: Mycobacterium butyricum adjuvant arthritis, hind paw edema; assay: Adjuvant Arthritis Assay: Developing (hind paw edema, rats); type: in vivo, female Lewis rats; conditions: 96 h, dosed once daily for 4 days in 0.25% methylcellulose, paw edema on fifth day
Protocol: Anti-Inflammatory: This activity was evaluated via a modification of the Adjuvant Arthritis Assay (AA) described by S. […] This assay measures the ability of the test compound to antagonize local edema, a characteristic of the inflammatory response. […] The left and right rear paws of female Lewis rats (Charles River Laboratories) weighing 160-180 grams each were measured by mercury displacement prior to injection (Day Zero). Adjuvant arthritis was induced in this rat colony by subcutaneous injection of Mycobacterium butyricum (0.75 mg in 0.1 ml light mineral oil, Fisher) using an automated Cornwall syringe. On days 11-15 post-adjuvant the injected animals with 0.25 to 0.75 ml. paw edema were selected and distributed evenly, according to edema size, into control and experimental groups of ten rats each. Vehicle control and drug treatments were assigned to the groups at random. The assay was performed using a variable dose level for each test compound per kilogram per day in 0.25% methylcellulose vehicle. All animals were dosed once daily for 4 days and on the fifth day both hind paw volumes were again measured using mercury displacement. The hind paw edema was determined for each rat by subtracting the hind paw volume measured on Day Zero from the hind paw volume measured on the fifth day of the study. Group means were determined and the drug effect was calculated as percent inhibition of the hind paw edema according to the following equation: [formula] […] The known anti-inflammatory NAPROXEN was also tested for comparison purposes.

[2] = system: yeast-induced fever; assay: Antipyretic Evaluation (yeast-induced fever in rats); type: in vivo, male Sprague-Dawley rats; conditions: 300 mg/kg, oral, 19 hours after yeast; temperature one hour after dosing
Protocol: Antipyretic: This activity was evaluated by creating a yeast-induced fever in rats according to a modified method of the procedure described by Loux et al in "Toxicology and Applied Pharmacology", Vol. 22: page 672 (1972). In this assay rats injected with yeast in distilled water were dosed with test compounds, aspirin (positive control) and a vehicle (negative control) and the observed differences in body temperature were analyzed statistically.
Antipyretic activity was evaluated using a modification of the test described by Loux et al, in Toxicology and Applied Pharmacology, 22:672 (1972), that is, yeast-induced fever in rats. Each test group consisted of ten male Sprague-Dawley rats (Charles River Laboratories), weighing 180-225 grams each. Eighteen hours prior to compound administration the rats were weighed and body temperatures were recorded. Food was removed with water available ad libitum. […]
Test compounds suspended in 0.25% methylcellulose (0.25% MC) or olive oil were administered orally by gavage nineteen hours following the yeast injection. Body temperatures were taken and recorded one hour after compound administration. […] The mean temperature of the compound-treated groups, positive control group (Aspirin) and negative control group (vehicle) were calculated at 18 hours and 20 hours. The data was analyzed statistically using a paired-samples Student's t-Test.

[3] = system: Mycobacterium butyricum adjuvant arthritis, hind paw edema; assay: Adjuvant Arthritis Assay; Immunomodulatory; type: in vivo, Lewis female rats; conditions: 50 mg/kg, oral, Day 5 to 9; edema on Day 15
Protocol: Immunomodulatory: This activity was determined by using a Modified Adjuvant Assay procedure in which female rats were injected with Mycobacterium butyricum to induce hind paw edema. The test compounds were administered orally and the difference in volume between dosed and non-dosed paws was determined.
Lewis female rats were injected in the tail subcutaneously with Mycobacterium butyricum (0.75 mg in 0.1 ml light mineral oil, Fisher) on Day Zero. Prior to injection the volumes of the left and right rear paws were measured by mercury displacement. All rats were dosed orally with vehicle or test compounds on Day 5 to 9 inclusive. The volume of both hind paws were determined on Day 15 and the percent inhibitions were calculated based upon average edema on Day 15 relative to the edema mean in the control group.

SMILES | ED50 [1] | Change in Temperature, 18-20 Hour Period [2] | % Inhibition [3]
COc1ccc2cc([C@H](C)C(=O)O)ccc2c1 [NAPROXEN, reference compound] | 28 mg/kg |  | 
CC(C)(C)c1cc(N2CCCCC2=O)cc(C(C)(C)C)c1O [Example 2, 1-(3,5-di-tert-butyl-4-hydroxyphenyl)piperidin-2-one] | 34 mg/kg |  | 
CC(=O)Oc1ccccc1C(=O)O [Aspirin, reference compound] |  | -2.05 °C | 
CC(C)(C)c1cc(N2CCCC2=O)cc(C(C)(C)C)c1O [Example 1, 1-(3,5-di-tert-butyl-4-hydroxyphenyl)pyrrolidin-2-one] | 21 mg/kg | -1.55 °C | 39%
